Patent US20220169654A1, “New Organic Compounds” (Servier Pharmaceuticals LLC, priority 2020, published 2022)

Columns and labels:
[1] = target: T1, MAT2A homodimer (Homo sapiens, UniProt P31153); experiment: MAT2A inhibition (biochemical, liberated phosphate, PiColorLock Gold); details: recombinant MAT2A homodimer; IC50 bin with Max Inh.; read-out: Enzyme Inhibition Bin
T1 construct: inferred from Ni sepharose purification with imidazole elution; made in house; host or cells: Sf9 insect cells, baculovirus (Bac to Bac, pFASTBAC1)
Procedure, shortened: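 Baculovirus/Sf9-expressed, Ni-purified MAT2A (4 μg/mL) preincubated with compound 60 min at 25 °C in Tris pH 8.0/KCl/MgCl2 buffer. Reaction started with 500 μM ATP and 400 μM L-methionine (substrate-mix concentrations), run 60 min at 25 °C. Phosphate measured colorimetrically against a phosphate standard curve to give IC50.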

[2] = test system: HCT116 MTAP−/−; experiment: Inhibition of cellular proliferation, 4 days, Cell Titer Glo, HCT116 MTAP−/−; format: cell-based; details: Homo sapiens, HCT-116, 96 h, IC50 bin with Max Inh., read-out: 4 Day Relative Growth Inhibition (MTAP −/−)
Procedure, shortened: (§1)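 Isogenic HCT116 pair differing only in MTAP status, plated 24 h before treatment with 10-point 3-fold dilutions; 4 days at 37° C./5% CO2. Cell Titer Glo luminescence, blank-subtracted and normalised to 0.2% DMSO control, gives percentage proliferation vs log molar concentration for IC50.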

[3] = test system: SAM in HCT116 human colon carcinoma cell line with MTAP gene deleted (MTAP −/−); experiment: Cellular assay of target engagement (SAM), LC-MS/MS, 72 hrs; format: cell-based; details: HCT-116, IC50 bin with Max Inh., read-out: Cell 72 h SAM Inhibition (MTAP −/−)
Procedure, shortened: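 MTAP-deleted HCT116 cells plated 24 h, then given 10-point 3-fold dilutions for 72 hrs at 37° C. Intracellular SAM extracted in cold 80% methanol with 1M acetic acid and d3-SAM standard, quantified by LC-MS/MS (MRM m/z 399.2→250.1); IC50 derived.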

[4] = test system: HCT116 MTAP+/+; experiment: Inhibition of cellular proliferation, 4 days, Cell Titer Glo, HCT116 MTAP+/+; format: cell-based; details: Homo sapiens, HCT-116, 96 h, IC50 bin with Max Inh., read-out: 4 Day Relative Growth Inhibition (MTAP +/+)
Procedure, shortened: as §1

T1 sequence (P31153 whole entry): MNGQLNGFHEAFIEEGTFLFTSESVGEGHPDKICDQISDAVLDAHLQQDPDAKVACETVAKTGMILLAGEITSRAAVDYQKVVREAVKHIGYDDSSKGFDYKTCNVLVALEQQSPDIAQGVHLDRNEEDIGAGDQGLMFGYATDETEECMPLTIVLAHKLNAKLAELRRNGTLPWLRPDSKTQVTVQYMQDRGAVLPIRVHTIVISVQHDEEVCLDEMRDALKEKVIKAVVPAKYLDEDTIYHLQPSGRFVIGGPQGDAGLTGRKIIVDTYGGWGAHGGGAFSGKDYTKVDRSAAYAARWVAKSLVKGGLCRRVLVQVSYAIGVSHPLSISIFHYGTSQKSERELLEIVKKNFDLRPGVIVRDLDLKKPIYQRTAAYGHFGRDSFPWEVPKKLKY

SMILES	IC50 [1]	IC50 [2]	IC50 [3]	IC50 [4]
CC(C)Cn1cc(C#N)c2nn(-c3ccc4nn(C)cc4c3)c(=O)c(-c3ccc(OC(F)F)cc3)c21 [Example 116, 4-(4-(difluoromethoxy)phenyl)-5-isobutyl-2-(2-methyl-2H-indazol-5-yl)-3-oxo-3,5-dihydro-2H-pyrrolo[3,2-c]pyridazine-7-carbonitrile]	< 100 nM	100 to 1000 nM	< 100 nM	> 1000 nM
Cn1cc2cc(-n3nc4[nH]c(=O)n(CC5CC5)c4c(-c4ccc(OC(F)F)cc4)c3=O)ccc2n1 [Example 197, 5-(cyclopropylmethyl)-4-(4-(difluoromethoxy)phenyl)-2-(2-methyl-2H-indazol-5-yl)-2,7-dihydro-3H-imidazo[4,5-c]pyridazine-3,6(5H)-dione]	< 100 nM	100 to 1000 nM	< 100 nM	100 to 1000 nM
CC(C)Cn1ccc2nn(-c3ccc4nn(C)cc4c3)c(=O)c(-c3ccc(OC(F)F)cc3)c21 [Example 115, 4-(4-(difluoromethoxy)phenyl)-5-isobutyl-2-(2-methyl-2H-indazol-5-yl)-2,5-dihydro-3H-pyrrolo[3,2-c]pyridazin-3-one]	< 100 nM	< 100 nM	< 100 nM	> 1000 nM
Cn1cc2cc(-n3nc4c(S(N)(=O)=O)cn(CC5CC5)c4c(-c4ccc(C5CC5)cc4)c3=O)ccc2n1 [Example 180, 5-(cyclopropylmethyl)-4-(4-cyclopropylphenyl)-2-(2-methyl-2H-indazol-5-yl)-3-oxo-3,5-dihydro-2H-pyrrolo[3,2-c]pyridazine-7-sulfonamide]	< 100 nM	< 100 nM	< 100 nM	> 1000 nM
CCc1ccc(-c2c(=O)n(-c3ccc4nc(C)n(C)c4c3)nc3c(C#N)cn(CC4CC4)c23)cn1 [Example 152, 5-(cyclopropylmethyl)-2-(1,2-dimethyl-1H-benzo[d]imidazol-6-yl)-4-(6-ethylpyridin-3-yl)-3-oxo-3,5-dihydro-2H-pyrrolo[3,2-c]pyridazine-7-carbonitrile]	< 100 nM	< 100 nM	< 100 nM	> 1000 nM
Cc1ccc(-c2c(=O)n(-c3ccc4nn(C)cc4c3)nc3ccn(CC4CC4)c23)cn1 [Example 103, 5-(cyclopropylmethyl)-2-(2-methyl-2H-indazol-5-yl)-4-(6-methylpyridin-3-yl)-2,5-dihydro-3H-pyrrolo[3,2-c]pyridazin-3-one]	< 100 nM	< 100 nM	< 100 nM	100 to 1000 nM
Cc1ccc(-c2c(=O)n(-c3ccc4nn(C)cc4c3)nc3ncn(CC4CC4)c23)cn1 [Example 187, 5-(cyclopropylmethyl)-2-(2-methyl-2H-indazol-5-yl)-4-(6-methylpyridin-3-yl)-2,5-dihydro-3H-imidazo[4,5-c]pyridazin-3-one]	< 100 nM	100 to 1000 nM	100 to 1000 nM	> 1000 nM
Cc1ccc(-c2c(=O)n(-c3ccc4nn(C)cc4c3)nc3c2n(CC2CC2)c(=O)n3C)cn1 [Example 202, 5-(cyclopropylmethyl)-7-methyl-2-(2-methyl-2H-indazol-5-yl)-4-(6-methylpyridin-3-yl)-2,7-dihydro-3H-imidazo[4,5-c]pyridazine-3,6(5H)-dione]	< 100 nM	100 to 1000 nM	100 to 1000 nM	100 to 1000 nM
COC1CC=C(n2nc3ccn(CC4CC4)c3c(-c3ccc(OC(F)F)cc3)c2=O)CC1 (stereo not drawn) [Example 230, 5-(cyclopropylmethyl)-4-(4-(difluoromethoxy)phenyl)-2-(4-methoxycyclohex-1-en-1-yl)-2,5-dihydro-3H-pyrrolo[3,2-c]pyridazin-3-one]	< 100 nM	100 to 1000 nM	100 to 1000 nM	> 1000 nM
Cn1cc2cc(-n3nc4nnn(CC5CC5)c4c(-c4ccc(C5CC5)nc4)c3=O)ccc2n1 [Example 210, 1-(cyclopropylmethyl)-7-(6-cyclopropylpyridin-3-yl)-5-(2-methyl-2H-indazol-5-yl)-1,5-dihydro-6H-[1,2,3]triazolo[4,5-c]pyridazin-6-one]	100 to 1000 nM	100 to 1000 nM	> 1000 nM	> 1000 nM
CNC(=O)c1cn(CC2CC2)c2c(-c3ccc(Cl)cc3)c(=O)n(-c3ccc4nn(C)cc4c3)nc12 [Example 171, 4-(4-chlorophenyl)-5-(cyclopropylmethyl)-N-methyl-2-(2-methyl-2H-indazol-5-yl)-3-oxo-3,5-dihydro-2H-pyrrolo[3,2-c]pyridazine-7-carboxamide]	< 100 nM	< 100 nM	< 100 nM	< 100 nM

The remaining lines, values ahead:

IC50 [1]	IC50 [2]	IC50 [3]	IC50 [4]	SMILES
< 1000 nM	> 1000 nM	< 100 nM	> 1000 nM	Cc1cc2nn(-c3ccc4nn(C)cc4c3)c(=O)c(-c3ccc(C4CC4)nc3)c2n1CC1CC1 [Example 263, 5-(cyclopropylmethyl)-4-(6-cyclopropylpyridin-3-yl)-6-methyl-2-(2-methyl-2H-indazol-5-yl)-2,5-dihydro-3H-pyrrolo[3,2-c]pyridazin-3-one]
< 100 nM	100 to 1000 nM	100 to 1000 nM	100 to 1000 nM	CCCn1cc(C#N)c2nn(-c3ccc4nn(C)cc4c3)c(=O)c(-c3ccc(C)nc3)c21 [Example 145, 2-(2-methyl-2H-indazol-5-yl)-4-(6-methylpyridin-3-yl)-3-oxo-5-propyl-3,5-dihydro-2H-pyrrolo[3,2-c]pyridazine-7-carbonitrile]
< 100 nM	< 100 nM	< 100 nM	100 to 1000 nM	C#Cc1cn(CC2CC2)c2c(-c3ccc(C4CC4)nc3)c(=O)n(-c3ccc4nn(C)cc4c3)nc12 [Example 244, 5-(cyclopropylmethyl)-4-(6-cyclopropylpyridin-3-yl)-7-ethynyl-2-(2-methyl-2H-indazol-5-yl)-2,5-dihydro-3H-pyrrolo[3,2-c]pyridazin-3-one]
< 100 nM	< 100 nM	< 100 nM	> 1000 nM	Cn1cc2cc(-n3nc4ncn(CC5CC5)c4c(-c4ccc(C5CC5)nc4)c3=O)ccc2n1 [Example 190, 5-(cyclopropylmethyl)-4-(6-cyclopropylpyridin-3-yl)-2-(2-methyl-2H-indazol-5-yl)-2,5-dihydro-3H-imidazo[4,5-c]pyridazin-3-one]
< 100 nM	< 100 nM	< 100 nM	100 to 1000 nM	CCc1ccc(-c2c(=O)n(-c3ccc4nn(C)cc4c3)nc3ccn(CC4CC4)c23)cn1 [Example 135, 5-(cyclopropylmethyl)-4-(6-ethylpyridin-3-yl)-2-(2-methyl-2H-indazol-5-yl)-2,5-dihydro-3H-pyrrolo[3,2-c]pyridazin-3-one]
< 100 nM	< 100 nM	< 100 nM	> 1000 nM	Cn1cc2cc(-n3nc4ccn(CC5CC5)c4c(-c4ccc(OC(F)F)nc4)c3=O)ccc2n1 [Example 113, 5-(cyclopropylmethyl)-4-(6-(difluoromethoxy)pyridin-3-yl)-2-(2-methyl-2H-indazol-5-yl)-2,5-dihydro-3H-pyrrolo[3,2-c]pyridazin-3-one]
< 100 nM	< 100 nM	< 100 nM	> 1000 nM	C[C@@H](O)c1cn(CC2CC2)c2c(-c3ccc(C4CC4)nc3)c(=O)n(-c3ccc4nn(C)cc4c3)nc12 [Example 249, (R)-5-(cyclopropylmethyl)-4-(6-cyclopropylpyridin-3-yl)-7-(1-hydroxyethyl)-2-(2-methyl-2H-indazol-5-yl)-2,5-dihydro-3H-pyrrolo[3,2-c]pyridazin-3-one]
< 100 nM	100 to 1000 nM	100 to 1000 nM	> 1000 nM	Cn1cc2cc(-n3nc4c(C#N)cn(CCC(F)(F)F)c4c(-c4ccc(C5CC5)nc4)c3=O)ccc2n1 [Example 109, 4-(6-cyclopropylpyridin-3-yl)-2-(2-methyl-2H-indazol-5-yl)-3-oxo-5-(3,3,3-trifluoropropyl)-3,5-dihydro-2H-pyrrolo[3,2-c]pyridazine-7-carbonitrile]
< 100 nM	< 100 nM	< 100 nM	> 1000 nM	Cc1c(C#N)c2nn(-c3ccc4nn(C)cc4c3)c(=O)c(-c3ccc(OC(F)F)cc3)c2n1CC1CC1 [Example 264, 5-(cyclopropylmethyl)-4-(4-(difluoromethoxy)phenyl)-6-methyl-2-(2-methyl-2H-indazol-5-yl)-3-oxo-3,5-dihydro-2H-pyrrolo[3,2-c]pyridazine-7-carbonitrile]
< 100 nM	< 100 nM	< 100 nM	100 to 1000 nM	Cn1cc2cc(-n3nc4c(C#N)c(Cl)n(CC5CC5)c4c(-c4ccc(C5CC5)nc4)c3=O)ccc2n1 [Example 251, 6-chloro-5-(cyclopropylmethyl)-4-(6-cyclopropylpyridin-3-yl)-2-(2-methyl-2H-indazol-5-yl)-3-oxo-3,5-dihydro-2H-pyrrolo[3,2-c]pyridazine-7-carbonitrile]
